Assay results published in patent US20080051413A1, “Nitrophenylpiperazine derivative of xanthine which relaxes tracheal airway and increases respiratory performance” (KAOHSIUNG MEDICAL UNIVERSITY, priority 2006, published 2008).

What was measured:
guinea pig TSM strips = assay: Determination of nitrite in TSM strips; conditions: 100 _M, 30 min, EP+ TSM, basal 0.8±0.1 _M/mg, n=3
Description: Determination of Nitrite: To measure concentrations of nitrite (NO2^−) in guinea pig TSM strips, TSM strips were pretreated with KMUP-3 (100 _M) in Krebs' solution for 30 min. Then guinea pig TSM strips (2 ml/g tissue of methanol) were ultrasonically homogenized in an ice bath and then centrifuged at 10,000 g for 10 min at 4_. Briefly, harvestable supernatants were reacted with an equal volume of Griess reagents (1% […]/0.1% N-L-naphthylethylenediamine dihydrochloride/5% H3PO4) for 10 min to form a colored azo dye. The absorbance at 540 nm was detected by a flow-through visible spectrophotometer, and an equal volume of methanol was used for blank control.

[1] = target: T1, PDE3 purified from human platelets (Homo sapiens, UniProt Q14432); assay: Phosphodiesterase activity, PDE3; format: biochemical; conditions: 10 _M compound, n = 3
T1 construct: PDE3 and PDE5 purified from human platelets; from tissue; host or cells: human platelets
T1 sequence (Q14432 whole entry): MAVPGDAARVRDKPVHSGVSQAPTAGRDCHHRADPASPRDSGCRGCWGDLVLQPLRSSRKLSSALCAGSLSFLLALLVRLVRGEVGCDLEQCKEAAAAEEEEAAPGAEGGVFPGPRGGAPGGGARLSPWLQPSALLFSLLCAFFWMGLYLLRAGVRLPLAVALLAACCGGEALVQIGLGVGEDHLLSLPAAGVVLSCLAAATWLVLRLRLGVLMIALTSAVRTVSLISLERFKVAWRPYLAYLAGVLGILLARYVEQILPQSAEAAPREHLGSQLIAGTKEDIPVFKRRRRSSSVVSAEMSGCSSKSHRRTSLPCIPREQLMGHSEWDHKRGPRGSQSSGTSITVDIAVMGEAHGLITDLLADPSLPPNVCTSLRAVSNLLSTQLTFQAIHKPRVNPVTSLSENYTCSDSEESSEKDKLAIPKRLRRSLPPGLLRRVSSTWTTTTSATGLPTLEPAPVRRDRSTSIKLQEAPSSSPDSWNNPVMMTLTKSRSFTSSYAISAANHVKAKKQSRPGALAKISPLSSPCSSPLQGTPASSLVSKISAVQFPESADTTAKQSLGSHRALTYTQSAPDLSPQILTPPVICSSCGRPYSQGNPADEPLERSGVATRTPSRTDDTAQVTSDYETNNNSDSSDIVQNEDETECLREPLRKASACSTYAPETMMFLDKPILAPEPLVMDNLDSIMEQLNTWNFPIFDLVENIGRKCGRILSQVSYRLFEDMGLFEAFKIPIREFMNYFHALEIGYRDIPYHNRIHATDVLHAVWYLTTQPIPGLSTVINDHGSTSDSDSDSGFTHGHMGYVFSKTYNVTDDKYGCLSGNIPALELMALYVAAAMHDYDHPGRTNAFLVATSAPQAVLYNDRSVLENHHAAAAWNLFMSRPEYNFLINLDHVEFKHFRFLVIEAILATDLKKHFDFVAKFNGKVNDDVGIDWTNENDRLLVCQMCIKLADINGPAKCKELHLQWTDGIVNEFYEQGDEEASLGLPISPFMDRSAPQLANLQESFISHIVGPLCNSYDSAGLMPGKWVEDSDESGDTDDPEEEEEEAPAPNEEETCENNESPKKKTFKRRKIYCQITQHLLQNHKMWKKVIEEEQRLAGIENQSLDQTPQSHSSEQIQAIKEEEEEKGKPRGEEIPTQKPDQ
Description: PDE3 and PDE5 purified from human platelets and PDE4 purified from human U-937 pronocytic cells were used. Test compound (10 _M) or vehicle was incubated with 0.2 _g of enzyme and 1 _M cAMP containing 0.01 _M [^3H]cAMP in Tris buffer, pH 7.5, for 20 min at 25_. The reaction was terminated by boiling for 2 min, and the resulting cAMP was converted to adenosine by the addition of 10 mg/ml snake venom nucleotidase, which is followed by a further incubation at 37_for 10 min. Unhydrolyzed cAMP was bound to AG1-X2 resin, and the remaining [^3H]adenosine in the aqueous phase was quantitated by scintillation counting.

[2] = target: T2, PDE5 purified from human platelets (Homo sapiens, UniProt O76074); assay: Phosphodiesterase activity, PDE5; format: biochemical; conditions: 10 _M compound, n = 3
T2 construct: PDE3 and PDE5 purified from human platelets; from tissue; host or cells: human platelets
Description: The reaction was terminated by boiling for 2 min, and the resulting GMP was converted to adenosine by the addition of 10 mg/ml snake venom nucleotidase, which was followed by a further incubation at 37_ for 10 min. Unhydrolyzed cGMP was bound to AG1-X2 resin, and the remaining [^3H]guanosine in the aqueous phase was quantitated by scintillation counting.

[3] = test system: TNF-_-induced bronchoconstriction; assay: TNF-_-induced bronchoconstriction, intratracheal instillation; format: in vivo, guinea pig
Description: (§1) Animals: Male Dunkin Harley guinea pigs (350-450 g) were provide by the National Laboratory Animal Breeding and Research Center (Taipei, Taiwan) and housed under conditions of constant temperature and controlled illumination. Food and water were available and libitum. The study was approved by the Animal Care and Use Committee of the Kaohsiung Medical University.
(§2) Pulmonary Function: Guinea pegs (350-450 g) were anesthetized with pentobarbital (40 mg/kg i.p.) and maintained with further i.v. doses of 2 to 5 mg/kg when required according to methods previously described (Wu B N, Lin R J, Lo Y C, Shen K P, Wang C C, Lin Y T, and Chen I J (2004) KMUP-1, a xanthine derivative, induces relaxation of guinea-pig isolated trachea: the role of the epithelium, cyclic nucleotides and K^+ channels, Br J Pharmacol 142:1105-1114). The animal was tethered in a supine position, and the trachea was cannulated below the larynx with a short tracheal cannula via a tracheotomy. Tracheal pressure was measured by a catheter connected to the side arm of the tracheal cannula. The carotid artery and jugular vein were cannulated to monitor blood pressure and heart rate and for drug administration, respectively. Throughout the experiment, the body temperature of the guinea pig was maintained at 37_. Measurements of pulmonary cardiac function were carried out as previously described (Hsu T H, Lai Y L, and Kou Y R (1998) Acetylcholine and tachykinin receptor antagonists attenuate wood smoke-induced bronchoconstriction in Guinea pigs. Eur J Pharmacol 360:175-183). Total lung resistance (RL) and dynamic lung compliance (Cdyn) were measured on a breath-by-breath basis using a computer equipped with an A/D interface (DAS 1600; Buxco Electronics, Inc., Wilmington, N.C.) and software (version 1.5.7; Buxco Electronics, Inc.). Results obtained from the computer analysis were checked for accuracy by comparison with those calculated manually.
Animals were allowed to stabilize for 10 min following surgical manipulations before the test agent was administered. […]

respiratory performance = assay: Pulmonary function after i.v. injection (RL, Cdyn, tidal volume); format: in vivo; conditions: 1 mg/kg i.v., guinea pig, n = 3
Description: as §1, §2
Animals were allowed to stabilize for 10 min following surgical manipulations before the test agent was administered. Intratracheal instillation was performed using a catheter placed through the tracheal tube into the bronchial system. The catheter connected to a 1-ml syringe was inserted into the trachea cannula extending 1 cm beyond the tip of the cannula for instillation of drug or vehicle. The instillation was followed by rapid intratracheal injection of 0.5 ml of air to facilitate deposition of drug or vehicle into the lungs as in the modified methods of Chung et al. (2001)(Chung W H, Bennett B M, Racz W J, Brien J F, and […] Fischer 344 rats during aminodarone-induced pulmonary fibrosis. Am J Physiol 281:L1180-L1188). The animals were pretreated intratracheally with KMUP-3 (0.5, 1.0, and 2.0 mg/kg/150 _l of saline) or an equivalent volume (150 _l) of vehicle 15 min before TNF-_(0.01 mg/kg/300 _l saline) was instilled to induce acute bronchoconstriction. In another experiments, KMUP-3 or KMUP-1 (1.0 mg/kg i.v.) were used to compare the effects on respiratory performance, indicated by changes of tidal volume, total RL, and Cdyn.

[4] = 0.5, 1.0, 2.0 mg/kg intratracheal, 15 min prior to TNF-_ (0.01 mg/kg)

In the case of `Cn1c(=O)c2c(ncn2CCN2CCN(c3ccc([N+](=O)[O-])cc3)CC2)n(C)c1=O` [KMUP-3], the “NO2— release in comparison with the basal level” value (guinea pig TSM strips) was 160±15%, the PDE3 inhibition [1] was 55 ± 2.5 % and the “PDE5 Inhibition” value [2] was 48 ± 1.9 %. The “effect on Cdyn in TNF-_-induced bronchocontraction (FIG. 2)” value [3, 4] was “increasing Cdyn”, the “effect on RL in TNF-_-induced bronchocontraction (FIG. 2)” value [3, 4] was “decreasing RL” and the “Blood pressure and heart rate” value ([3]; intratracheal instillation, during recording of lung function) was “not significantly changed”. For the same molecule, the “Cdyn, Maximum change of baseline (%)” value (respiratory performance) was 50 ± 5.5 %, the “RL, Maximum change of baseline (%)” value (respiratory performance) was −55 ± 4.5 % and the “Tidal Volume, Maximum change of baseline (%)” value (respiratory performance) was 21.7 ± 0.5 %.
